Laboratory results taken from patent US12558356B2, “Immunophilin binding agents and uses thereof” (The Regents of the University of California, priority 2019, dated 2026).
Where two headings read alike, the source gives them in different places.

How the values were obtained:
p-S6 level in MCF7 cells = test: Western blot of p-S6 level in MCF7 cells after combination treatment with Rapa/Rapalink and candidate compound (blockade score); format: cell-based; conditions: 24 h, p-S6 level as fraction of DMSO control; for Rapamycin Blockade: 10 nM Rapa + 10 μM candidate compound; for RapaLink-1 Blockade: 10 nM Rapalink + 10 μM candidate compound
FKBP12 = FKBP12 (Homo sapiens (Human), UniProt P62942); test: FKBP12 binding assay (fluorescence polarization)
[1] = test system: mTOR signaling in brain and skeletal muscle; test: In vivo brain/periphery mTOR inhibition in mouse model, blocker combined with rapamycin or RapaLink-1; conditions: combination with Rapalink-1, dose not given; brain
[2] = test system: p-Tyr signaling in Jurkat cells; test: Phosphotyrosine / TCR signaling in Jurkat cells (Western blot); format: cell-based; conditions: Jurkat cells, 100 nM, 1 h, washed 3 times with PBS
Method: Jurkat cells (1×10^6/mL) were treated with 100 nM of the indicated compounds for 1 h, then were washed 3 times with PBS and resuspended in culture media. Samples were taken at the indicated time points and lysed immediately.

Chain of FKBP12 (P62942 whole entry): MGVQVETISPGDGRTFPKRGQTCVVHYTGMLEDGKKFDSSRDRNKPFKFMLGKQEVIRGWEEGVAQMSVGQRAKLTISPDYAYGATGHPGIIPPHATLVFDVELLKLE

Compound | Kd (FKBP12; read-out: Kd FKBP12) | Rapamycin Blockade (p-S6 level in MCF7 cells) | RapaLink-1 Blockade (p-S6 level in MCF7 cells) | also measured
CCC(C)(C)C(=O)C(=O)N1CCCC[C@H]1C(=O)O[C@H](CCc1ccc(OC)c(OC)c1)c1cccc(N)c1 [SLF, reference compound] | – | 3 (>70%) | 0 (<20%) | –
CO[C@H]1C/C(C)=C/[C@@H](CCCc2cc[n+]([O-])cc2)C(=O)C[C@H](O)[C@@H](C)[C@@H](/C(C)=C/[C@@H]2CC[C@@H](O)[C@H](OC)C2)OC(=O)[C@@H]2CCCCN2C(=O)C(=O)[C@]2(O)O[C@H]([C@@H](OC)C1)[C@@H](OC)C[C@H]2C [ZZY05-086] | – | – | 3 (>70%) | Kd (FKBP12): 1.6 nM
CO[C@H]1C/C(C)=C/[C@@H](CCCSCCN)C(=O)C[C@H](O)[C@@H](C)[C@@H](/C(C)=C/[C@@H]2CC[C@@H](O)[C@H](OC)C2)OC(=O)[C@@H]2CCCCN2C(=O)C(=O)[C@]2(O)O[C@H]([C@@H](OC)C1)[C@@H](OC)C[C@H]2C [ZZY05-011] | – | 3 (>70%) | 3 (>70%) | Kd (FKBP12): 0.69 nM
CO[C@H]1C/C(C)=C/[C@@H](CCCc2ccccn2)C(=O)C[C@H](O)[C@@H](C)[C@@H](/C(C)=C/[C@@H]2CC[C@@H](O)[C@H](OC)C2)OC(=O)[C@@H]2CCCCN2C(=O)C(=O)[C@]2(O)O[C@H]([C@@H](OC)C1)[C@@H](OC)C[C@H]2C [ZZY05-085] | – | – | 3 (>70%) | In Vivo [1]: Appears to have blocked Rapalink-1 in brain; Kd (FKBP12): 1.5 nM
CCC(C)(C)C(=O)C(=O)N1CCCC[C@H]1C(=O)O[C@H](CCc1ccc(OC)c(OC)c1)c1cccc(NC(=O)CCl)c1 [ZZY02-033] | – | 0 (<20%) | – | –
CO[C@H]1C/C(C)=C/[C@@H](CCCSC[C@H](N)C(=O)O)C(=O)C[C@H](O)[C@@H](C)[C@@H](/C(C)=C/[C@@H]2CC[C@@H](O)[C@H](OC)C2)OC(=O)[C@@H]2CCCCN2C(=O)C(=O)[C@]2(O)O[C@H]([C@@H](OC)C1)[C@@H](OC)C[C@H]2C [ZZY05-037] | – | – | 1 (20-40%) | Kd (FKBP12): 8.7 nM
CCC(C)(C)C(=O)C(=O)N1CCCC[C@H]1C(=O)O[C@H](CCc1ccc(OC)c(OC)c1)c1cccc(NC(=O)[C@H](C)N)c1 [ZZY01-059] | – | 3 (>70%) | – | –
CCC(C)(C)C(=O)C(=O)N1CCCC[C@H]1C(=O)O[C@H](CCc1ccc(OC)c(OC)c1)c1cccc(NCC(=O)O)c1 [ZZY01-060A] | – | 0 (<20%) | – | –
CO[C@H]1C/C(C)=C/[C@@H](CCCC(=O)N2CCN(c3cc(Nc4ncc(C(=O)Nc5c(C)cccc5Cl)s4)nc(C)n3)CC2)C(=O)C[C@H](O)[C@@H](C)[C@@H](/C(C)=C/[C@@H]2CC[C@@H](O)[C@H](OC)C2)OC(=O)[C@@H]2CCCCN2C(=O)C(=O)[C@]2(O)O[C@H]([C@@H](OC)C1)[C@@H](OC)C[C@H]2C [ZZY05-022] | – | – | – | durability of effect after washout [2]: durable after washout
CCC(C)(C)C(=O)C(=O)N1CCCC[C@H]1C(=O)O[C@H](CCc1ccc(OC)c(OC)c1)c1cccc(NC(=O)CCC(=O)O)c1 [ZZY01-083] | – | 1 (20-40%) | – | –
CO[C@H]1C/C(C)=C/[C@@H](C/C=C/c2ccncc2)C(=O)C[C@H](O)[C@@H](C)[C@@H](/C(C)=C/[C@@H]2CC[C@@H](O)[C@H](OC)C2)OC(=O)[C@@H]2CCCCN2C(=O)C(=O)[C@]2(O)O[C@H]([C@@H](OC)C1)[C@@H](OC)C[C@H]2C [ZZY05-050] | – | – | 3 (>70%) | Kd (FKBP12): 3.6 nM
CO[C@H]1C/C(C)=C/[C@@H](CCCC(=O)O)C(=O)C[C@H](O)[C@@H](C)[C@@H](/C(C)=C/[C@@H]2CC[C@@H](O)[C@H](OC)C2)OC(=O)[C@@H]2CCCCN2C(=O)C(=O)[C@]2(O)O[C@H]([C@@H](OC)C1)[C@@H](OC)C[C@H]2C [ZZY05-020] | 1.49 nM | 2 (40%-70%) | 0 (<20%) | –
CO[C@H]1C/C(C)=C/[C@@H](C/C=C/C(=O)O)C(=O)C[C@H](O)[C@@H](C)[C@@H](/C(C)=C/[C@@H]2CC[C@@H](O)[C@H](OC)C2)OC(=O)[C@@H]2CCCCN2C(=O)C(=O)[C@]2(O)O[C@H]([C@@H](OC)C1)[C@@H](OC)C[C@H]2C [ZZY05-012] | – | 0 (<20%) | 0 (<20%) | Kd (FKBP12): 0.39 nM
CCC(C)(C)C(=O)C(=O)N1CCCC[C@H]1C(=O)O[C@H](CCc1ccc(OC)c(OC)c1)c1cccc(OCC(=O)O)c1 [ZZY01-041] | 38 nM | 0 (<20%) | – | –
CO[C@H]1C/C(C)=C/[C@@H](CCCSCCN(C)C)C(=O)C[C@H](O)[C@@H](C)[C@@H](/C(C)=C/[C@@H]2CC[C@@H](O)[C@H](OC)C2)OC(=O)[C@@H]2CCCCN2C(=O)C(=O)[C@]2(O)O[C@H]([C@@H](OC)C1)[C@@H](OC)C[C@H]2C [ZZY05-013] | – | 3 (>70%) | 3 (>70%) | Kd (FKBP12): 1.36 nM
tacrolimus [FK506, reference compound] | – | 3 (>70%) | 3 (>70%) | –

Now from value to compound, other results behind:

Kd (FKBP12; read-out: Kd FKBP12) | Compound | Rapamycin Blockade (p-S6 level in MCF7 cells) | RapaLink-1 Blockade (p-S6 level in MCF7 cells) | also measured
95 nM | CCC(C)(C)C(=O)C(=O)N1CCCC[C@H]1C(=O)O[C@H](CCc1ccc(OC)c(OC)c1)c1cccc(NC(=O)C[N+](C)(C)C)c1 [ZZY01-025] | 1 (20-40%) | – | –
21 nM | CCC(C)(C)C(=O)C(=O)N1CCCC[C@H]1C(=O)O[C@H](CCc1ccc(OC)c(OC)c1)c1cccc(NC(=O)CNN)c1 [ZZY01-070] | 1 (20-40%) | – | –
63.8 nM | CCC(C)(C)C(=O)C(=O)N1CCCC[C@H]1C(=O)O[C@H](CCc1ccc(OC)c(OC)c1)c1cccc(NC(=O)CS)c1 [ZZY02-055] | 0 (<20%) | – | –
0.62 nM | CO[C@H]1C/C(C)=C/[C@@H](C/C=C/c2cccc[n+]2[O-])C(=O)C[C@H](O)[C@@H](C)[C@@H](/C(C)=C/[C@@H]2CC[C@@H](O)[C@H](OC)C2)OC(=O)[C@@H]2CCCCN2C(=O)C(=O)[C@]2(O)O[C@H]([C@@H](OC)C1)[C@@H](OC)C[C@H]2C [ZZY05-060] | – | 1 (20-40%) | –
21.3 nM | CCC(C)(C)C(=O)C(=O)N1CCCC[C@H]1C(=O)O[C@H](CCc1ccc(OC)c(OC)c1)c1cccc(NC(=O)CN)c1 [ZZY01-040] | 3 (>70%) | – | –
75 nM | CCC(C)(C)C(=O)C(=O)N1CCCC[C@H]1C(=O)O[C@H](CCc1ccc(OC)c(OC)c1)c1cccc(N(CC(=O)O)CC(=O)O)c1 [ZZY01-060B] | 1 (20-40%) | – | –
0.2 nM | CO[C@H]1C/C(C)=C/[C@@H](CCCC(=O)Nc2ccccn2)C(=O)C[C@H](O)[C@@H](C)[C@@H](/C(C)=C/[C@@H]2CC[C@@H](O)[C@H](OC)C2)OC(=O)[C@@H]2CCCCN2C(=O)C(=O)[C@]2(O)O[C@H]([C@@H](OC)C1)[C@@H](OC)C[C@H]2C [ZZY05-064] | – | 3 (>70%) | –
15 nM | CCC(C)(C)C(=O)C(=O)N1CCCC[C@H]1C(=O)O[C@H](CCc1ccc(OC)c(OC)c1)c1cccc(NC(=O)CN2CCOCC2)c1 [ZZY01-043] | 3 (>70%) | – | –
43.7 nM | CCC(C)(C)C(=O)C(=O)N1CCCC[C@H]1C(=O)O[C@H](CCc1ccc(OC)c(OC)c1)c1cccc(NC(=O)CCOCCOCCN)c1 [ZZY03-077] | 3 (>70%) | – | –
64 nM | C=CC(=O)Nc1cccc([C@@H](CCc2ccc(OC)c(OC)c2)OC(=O)[C@@H]2CCCCN2C(=O)C(=O)C(C)(C)CC)c1 [ZZY02-014] | 3 (>70%) | – | –
9.4 nM | CCC(C)(C)C(=O)C(=O)N1CCCC[C@H]1C(=O)O[C@H](CCc1ccc(OC)c(OC)c1)c1cccc(OCCN)c1 [ZZY01-038] | 1 (20-40%) | – | –
37.3 nM | CCC(C)(C)C(=O)C(=O)N1CCCC[C@H]1C(=O)O[C@H](CCc1ccc(OC)c(OC)c1)c1cccc(NC(=O)CNc2ccccn2)c1 [ZZY03-091] | 2 (40%-70%) | – | –
36.4 nM | CCC(C)(C)C(=O)C(=O)N1CCCC[C@H]1C(=O)O[C@H](CCc1ccc(OC)c(OC)c1)c1cccc(NCCN)c1 [ZZY02-032] | 0 (<20%) | – | –
18.6 nM | CCC(C)(C)C(=O)C(=O)N1CCCC[C@H]1C(=O)O[C@H](CCc1ccc(OC)c(OC)c1)c1cccc(NC(=O)CCOCCN)c1 [ZZY03-084] | 2 (40%-70%) | – | –
31.1 nM | CCC(C)(C)C(=O)C(=O)N1CCCC[C@H]1C(=O)O[C@H](CCc1ccc(OC)c(OC)c1)c1cccc(NC(=O)Cc2ccccn2)c1 [ZZY03-083] | 3 (>70%) | 0 (<20%) | –
12.7 nM | CCC(C)(C)C(=O)C(=O)N1CCCC[C@H]1C(=O)O[C@H](CCc1ccc(OC)c(OC)c1)c1cccc(NC(=O)CN(C)C)c1 [ZZY01-044] | 3 (>70%) | – | –
0.21 nM | CO[C@H]1C/C(C)=C/[C@@H](C/C=C/c2cc[n+]([O-])cc2)C(=O)C[C@H](O)[C@@H](C)[C@@H](/C(C)=C/[C@@H]2CC[C@@H](O)[C@H](OC)C2)OC(=O)[C@@H]2CCCCN2C(=O)C(=O)[C@]2(O)O[C@H]([C@@H](OC)C1)[C@@H](OC)C[C@H]2C [ZZY05-061] | – | 0 (<20%) | –
37.8 nM | CCC(C)(C)C(=O)C(=O)N1CCCC[C@H]1C(=O)O[C@H](CCc1ccc(OC)c(OC)c1)c1cccc(NC(=O)CNC(=N)N)c1 [ZZY01-065] | 2 (40%-70%) | – | –
6 nM | CCC(C)(C)C(=O)C(=O)N1CCCC[C@H]1C(=O)O[C@H](CCc1ccc(OC)c(OC)c1)c1cccc(NC(=O)CN=[N+]=[N-])c1 [ZZY02-096] | 2 (40%-70%) | – | –
12.5 nM | CCC(C)(C)C(=O)C(=O)N1CCCC[C@H]1C(=O)O[C@H](CCc1ccc(OC)c(OC)c1)c1cccc(NC(=O)CN2CCN(C)CC2)c1 [ZZY01-072] | 3 (>70%) | – | –
